From PMC6105845, “Nucleotide Prodrug Containing a Nonproteinogenic Amino Acid To Improve Oral Delivery of a Hepatitis C Virus Treatment” (Antimicrobial Agents and Chemotherapy, 2018)
Converted amounts (≈) assume the structure as drawn.

What was measured:
[1] = Metabolic stability in hepatic S9 fraction, monkey; format: in vitro ADME; details: monkey (cynomolgus); 2 μM
Description: (§1) Blood plasma and S9 stability was studied as described previously ([8]). In brief, the compounds were incubated at 2 μM in hamster, rat, dog, monkey, or human plasma samples for up to 4 h at 37°C. For S9 stability, the compounds were incubated at 2 μM in hamster, rat, dog, monkey, or human intestinal and hepatic S9 fractions for up to 90 min at 37°C in the presence of NADPH and uridine 5′-diphosphoglucuronic acid trisodium salt (UDPGA) (Sigma-Adrich). The samples were analyzed by liquid chromatography coupled to triple-quadrupole mass spectrometry (LC-MS/MS).
(§2) The data (analyte-to-internal standard peak area ratio) were plotted on a semilog scale and fitted using an exponential fit. The half-life (t1/2) was determined assuming first-order kinetics.

[2] = Thermodynamic solubility (shaking flask, simulated intestinal fluid); format: physicochemical; details: for solubility thermodynamic: fessif, thermodynamic from solid, crystalline free base GS-6620, amorphous GS2
Description: The samples were incubated at 37°C for 1 h, followed by centrifugation at 2,800 relative centrifugal force (RCF) for 30 min at room temperature. Thermodynamic solubility was determined with the crystalline-free base of GS-6620 or amorphous GS2 using the shaking flask method. The concentrations of the compounds in supernatants were determined by HPLC.

[3] = target: T1, CES1 (Homo sapiens, UniProt P23141); experiment: Ester cleavage by CES1; format: biochemical
T1 construct: purchased R&D Systems (Minneapolis, MN)
T1 sequence (P23141 18-567): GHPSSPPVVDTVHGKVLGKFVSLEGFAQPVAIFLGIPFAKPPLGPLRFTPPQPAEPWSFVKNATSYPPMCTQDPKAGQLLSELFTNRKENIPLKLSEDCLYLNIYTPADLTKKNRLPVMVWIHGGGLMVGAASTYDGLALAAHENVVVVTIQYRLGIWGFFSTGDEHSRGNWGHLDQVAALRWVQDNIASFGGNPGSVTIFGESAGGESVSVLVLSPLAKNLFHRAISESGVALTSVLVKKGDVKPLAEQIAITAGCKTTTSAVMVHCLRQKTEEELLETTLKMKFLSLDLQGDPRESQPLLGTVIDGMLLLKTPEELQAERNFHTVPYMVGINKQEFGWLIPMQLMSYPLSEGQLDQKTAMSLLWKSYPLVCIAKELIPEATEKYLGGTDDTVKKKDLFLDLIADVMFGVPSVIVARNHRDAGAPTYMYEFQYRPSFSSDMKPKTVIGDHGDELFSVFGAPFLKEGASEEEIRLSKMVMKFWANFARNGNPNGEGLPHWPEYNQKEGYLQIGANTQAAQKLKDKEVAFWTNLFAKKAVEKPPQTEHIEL
Description: (§3) Biochemical assays studying prodrug cleavage have been described previously ([8]). In brief, the cleavages of GS2 by CATA, CES1, CES2, and HINT1 were assessed in vitro. The reaction substrates and products were monitored over time by high-performance liquid chromatography (HPLC).

[4] = target: T2, CES2 (Homo sapiens, UniProt O00748); experiment: Ester cleavage by CES2; format: biochemical; details: GS-6620-containing diastereomeric mixture was used
T2 construct: purchased R&D Systems (Minneapolis, MN)
T2 sequence (O00748 27-559): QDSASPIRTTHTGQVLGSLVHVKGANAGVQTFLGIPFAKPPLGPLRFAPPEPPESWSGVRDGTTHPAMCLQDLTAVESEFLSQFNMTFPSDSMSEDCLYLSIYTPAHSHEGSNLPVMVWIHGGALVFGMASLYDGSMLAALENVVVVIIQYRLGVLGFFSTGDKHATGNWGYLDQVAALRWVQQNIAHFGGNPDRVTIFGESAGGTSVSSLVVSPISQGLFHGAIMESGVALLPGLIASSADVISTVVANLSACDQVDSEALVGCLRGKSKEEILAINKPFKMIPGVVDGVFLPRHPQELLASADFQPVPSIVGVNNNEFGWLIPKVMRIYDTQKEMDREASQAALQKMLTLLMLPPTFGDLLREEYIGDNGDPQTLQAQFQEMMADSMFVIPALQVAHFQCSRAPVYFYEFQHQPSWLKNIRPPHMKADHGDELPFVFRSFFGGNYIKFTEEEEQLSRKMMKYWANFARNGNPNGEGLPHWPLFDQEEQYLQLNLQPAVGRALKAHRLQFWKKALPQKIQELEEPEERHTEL
Description: as §3

[5] = Metabolic stability in intestinal S9 fraction, monkey; format: in vitro ADME; details: monkey (cynomolgus)
Description: as §1, §2

[6] = Metabolic stability in hepatic S9 fraction, dog; format: in vitro ADME; details: 2 μM
Description: as §1, §2

[7] = Metabolic stability in intestinal S9 fraction, rat; format: in vitro ADME
Description: as §1, §2

[8] = tested on: HCV GT1a replicon; experiment: HCV GT1a replicon, transiently transfected Huh-1C cells; format: cell-based, hepatitis C virus; details: for EC50: Hepatitis C virus, GT1A, 72 h
Description: GT1a, GT1b, and GT2a are authentic subgenomic replicons of the indicated strain. Creation of these HCV replicons was reported previously ([7]).
RNA was transcribed in vitro using a MEGAscript […] kit (Ambion, Austin, TX) and transfected into Huh-Lunet and −1C cells using published methods ([21], [22]).
The EC50s, defined as the concentration at which there was a measured 50% decrease in HCV replicon level, were determined in replicon assay as previously described ([24]). Briefly, replicon cells were seeded into 96-well plates. Compounds were serially diluted in DMSO at 200× final concentrations and then added to the assay plate. Luciferase expression was quantified after 3 days of incubation using a commercial luciferase assay (Promega, Madison, WI). Data were analyzed using GraphPad Prism 6.0 (La Jolla, CA).
X represents log of compound concentration and Y represents replicon replication as the percentage of DMSO control. EC50s were calculated as an average from at least three independent experiments.

[9] = Caco-2 bidirectional permeability; format: in vitro ADME; details: human; for Papp A→B / Papp B→A / efflux ratio: at thermodynamic solubility limit in fed simulated intestinal fluid; for efflux ratio: read-out: Efflux ratio B→A/A→B
Description: Caco-2 cells between passage 43 and 71 were grown to confluence for ≥21 days on 12- or 24-well polyethylene terephthalate plates (BD Biosciences). The bidirectional permeability of compounds was tested as described previously ([8]). In brief, the donor well contained Hanks' balanced salt solution (HBSS), 10 mM HEPES (pH 6.5), and 15 mM glucose. The receiver well contained HBSS (pH 7.4) and 1% bovine serum albumin (BSA). The cells were dosed on the apical (A) or basolateral (B) side to determine forward (A to B) and reverse (B to A) permeability. Media from the donor and receiver wells were analyzed by LC-MS/MS.

[10] = fed-state simulated intestinal fluid
[11] = CES1, GS-6620-containing diastereomeric mixture was used

Row | Compound | Metabolic stability in hepatic S9 fraction, predicted hepatic extraction [1] [%] | difference in solubility between fed and fasted simulated intestinal fluid [2] | thermodynamic solubility higher than GS-6620 [2, 10] [fold] | solubility thermodynamic [2, 10] [µM] | Amidate ester cleavage, specific activity [3, 11] [pmol/min/µg] | CES1 hydrolysis more efficient than GS-6620 ([3]; isopropyl ester cleavage) [fold] | Amidate ester cleavage, specific activity [4] | half-life at 2 μM [5] [h] | Metabolic stability in hepatic S9 fraction, predicted hepatic extraction [6] [%] | half-life at 2 μM [7] [h] | Fold (GS2/GS-6620) ([8]; EC50 ratio, GT1a, Huh-1C) | EC50 [8] [nM] | Papp A→B [9] [×10⁻⁶ cm/s] | Papp B→A [9] [×10⁻⁶ cm/s] | efflux ratio [9] | Papp A→B at 10 μM ([9]; tested at 10 μM) [×10⁻⁶ cm/s] | Papp B→A at 10 μM ([9]; tested at 10 μM) [×10⁻⁶ cm/s] | 3′-Ester cleavage, specific activity [3, 11] [pmol/min/µg] | 3′-Ester cleavage, specific activity [4] [pmol/min/µg]
1 | CC(C)OC(=O)C(C)(C)N[P@](=O)(OC[C@H]1O[C@@](C#N)(c2ccc3c(N)ncnn23)[C@](C)(O)[C@@H]1O)Oc1ccccc1 [GS2] | 91 | less than 30% | > 30 | 430 (≈ 253 µg/mL) | 91.0 | 48 | Stable | 3.83 | 42 | 2.83 | 3.5 | 140 ± 60 | 2.6 | 6.7 | 2.5 | 0.4 | 9.3 |  | 
2 | CC(C)OC(=O)[C@H](C)N[P@](=O)(OC[C@H]1O[C@@](C#N)(c2ccc3c(N)ncnn23)[C@](C)(O)[C@@H]1OC(=O)C(C)C)Oc1ccccc1 [GS-6620, reference compound] | 95 |  |  | 7.8 (≈ 5.03 µg/mL) | 1.9 |  | Stable | 0.0933 | 73 | 0.147 |  | 41 ± 19 | 1.8 | 11 | 5.8 |  |  | 1.6 | 60.1
